Publication PMC10986598, “Investigating inhibitors of 1-deoxy-D-xylulose 5-phosphate synthase in a mouse model of UTI” (Microbiology Spectrum, 2024)
Values after ≈ are worked out from the molar mass of the structure shown. “Also recorded” adds a separate entry of the source.

Legend:
FVB mice = assay: Acute toxicity dose-escalation study in mice; assay type: in vivo, mouse; settings: n = 2
Description: Six-week-old female FVB mice were administered BAP by intraperitoneal (IP) injection at doses of 1, 3, 10, 30, 100, and 300 mg/kg. The mice were observed every hour for 6 h post administration for signs of overt toxicity or mortality, or for symptoms related to pain/distress (ruffled fur, discharge from the eyes, dehydration, hunched posture, convulsions, lethargy, reluctance to move, uncoordinated movements, hypothermia, pale ears/feet, labored respiration, and/or cyanosis). Following initial observations, 6 h post administration, mice were then observed daily for signs of toxicity for 18 days. Mice that were administered the highest dose of BAP tested (300 mg/kg) were weighed at days 0, 1, 2, 5, 6, 7, 13, and 18.

[1] = In vitro stability in mouse plasma; assay type: in vitro ADME
Description: In vitro stability studies were conducted using our previously published methods naive CD1 mouse plasma or liver homogenate. For liver homogenate stability study, washed mouse liver was diluted 10-fold in 0.1 M potassium phosphate buffer and homogenized using probe sonication. Crude homogenate was then aliquoted to 1 mL, and the homogenate was spiked with 10 µM compound. The plasma stability of the compounds was determined by spiking (10 µM) in 1 mL of plasma and incubating in an orbital shaker at 37°C. All the stability studies were conducted at predetermined times (0, 30, and 60 min), where 100 µL aliquots of the mixture in triplicate were removed and the reaction was quenched by the addition of three times the volume of ice-cold acetonitrile spiked with the internal standard (losartan: 0.5 µM). The samples were vortex-mixed for 30 s and centrifuged at 10,000g for 10 min at 4°C. An amount of 50 µL of the supernatant was diluted with 50 µL of water and transferred to a 250 µL polypropylene vial sealed with a Teflon cap. Compound disappearance was monitored over time using liquid chromatography and tandem mass spectrometry (LC–MS/MS). Paired t-tests were used to determine statistical significance between 0 and 60 min time points.

UPEC strain CFT073 = assay: In vivo ascending UTI assay (prophylaxis); set-up: species or system Escherichia coli in C3H/HeN mice; settings: for median log reduction of bacterial burden vs PBS-treated cohort: bladder, 48 h
Description: Female mice were injected subcutaneously in the flank with 2.5 mg of MPA (150 mg/mL, diluted in sterile saline) 7 days prior to inoculation ([60]). Mice were dosed vaginally with 30 µL of sterile saline lavage fluid immediately prior to inoculation. The fluid was collected, placed on a slide, heat fixed, Gram stained, and assessed to determine the estrous cycle stage of each mouse as previously described ([61]).
Six-week-old female C3H/HeN mice were inoculated with UPEC as previously described ([28]). Briefly, UPEC strain CFT073 (ATCC designation: BAA-2503) was streaked on LB agar from a frozen glycerol stock and grown overnight at 37°C. Following overnight incubation, three to five colonies were picked and subcultured into 10 mL of sterile LB, and the culture was incubated statically overnight at 37°C. The culture was diluted 1:1,000 (25 µL of culture into 25 mL of sterile LB) and incubated statically for 24 h at 37°C to promote the growth of bacteria with type-1 pili expression. The resulting 25 mL inoculum was centrifuged at 4,200 × g for 20 min at 4°C. The supernatant was removed, and the cell pellet was resuspended in 10 mL of sterile PBS. The OD600 was adjusted to 1.0 by the addition of PBS to give a cell density of approximately 4 × 10^7 to 1 × 10^8 CFUs per 50 µL, the volume of the inoculum. Cell counts were validated by plating a dilution of the inoculum solution and enumerating following overnight incubation.
Urinary catheters were assembled by threading 30G needles with 0.28 mm inner diameter polyethylene tubing to create a soft tip. Catheter tips were dipped in lubricant immediately before inoculation. During catheterization, urine was aspirated from the bladder prior to inoculation with 50 µL of UPEC inoculum, prepared as described above. Mice were housed with their drug-dosed cohort and dosed intraperitoneally according to each experiment’s dosing regimen as shown in the figures. Dosing regimen for BAP trial 1 (Fig. 7b)consisted of IP administration of BAP (300 mg/kg) 30 min before inoculation; dosing regimen for BAP trial 2 (Fig. 7c) consisted of IP administration of BAP (600 mg/kg) 30 min before inoculation followed with IP doses of BAP (300 mg/kg) at 1 and 3 hpi; dosing regimen for BAP trial 3 and the pro-hpAP trial (Fig. 7d) consisted of IP administration of BAP (600 mg/kg) or pro-hpAP (60 mg/kg) 30 min before inoculation followed with IP doses of BAP (300 mg/kg) or pro-hpAP (30 mg/kg) at 1, 3, and 24 hpi; dosing regimen 4 (Fig. S3) consisted of IP administration of BAP (600 mg/kg) 30 min before inoculation followed with IP doses of BAP (300 mg/kg) at 1, 3, 6, 10, 22, 26, and 30 hpi. Gentamicin diluted in sterile PBS was used as a positive control and was administered to mice at 10 mg/kg IP 30 min prior to inoculation in all experiments.
After 48 h, mice were anesthetized by isoflurane inhalation and sacrificed by cervical dislocation. Bladders were harvested, added to 1 mL sterile PBS, and homogenized with a hand-held homogenizer in a biosafety cabinet. Tissue homogenates were serially-diluted (five 10-fold dilutions), and 100 µL of each dilution was plated onto LB plates and enumerated after a 24 h incubation at 37°C, yielding an effective detection range of 1 × 10^2–150 × 10^8 CFU/mL. In a few cases, bacterial counts fell below the lower limit of detection or above the upper limit of detection and are reported as 0 CFU/mL or conservatively 200 × 10^8 CFU/mL, respectively.

UPEC (CFT073) = system: UPEC (CFT073); set-up: method as in PMID 37107054; settings: cited from earlier work
E. coli = settings: cited from earlier work
DXPS = system: DXPS; set-up: method as in PMID 23326631; settings: over other ThDP-dependent enzymes; cited from earlier work

Row | SMILES | body weight (FVB mice; single IP dose 300 mg/kg, weighed for 18 days, 300 mg/kg) | overt toxicity or altered behavior (FVB mice; single IP dose, escalating up to 300 mg/kg, observed 18 days) | % remaining in plasma ([1]; 10 µM, 37°C, at 1 h) [%] | protection against UTI (UPEC strain CFT073; BAP single 300 mg/kg IP dose 30 min prior to inoculation, 300 mg/kg) | median log reduction of bacterial burden vs PBS-treated cohort (UPEC strain CFT073; BAP trial 1: 300 mg/kg IP 30 min before inoculation (1 dose)) | median log reduction of bacterial burden vs PBS-treated cohort (UPEC strain CFT073; BAP trial 2: 600 mg/kg IP 30 min before inoculation, 300 mg/kg at 1 and 3 hpi (3 doses)) [log] | median log reduction of bacterial burden vs PBS-treated cohort (UPEC strain CFT073; BAP trial 3: 600 mg/kg IP 30 min before inoculation, 300 mg/kg at 1, 3 and 24 hpi (4 doses)) [log] | log reduction of bacterial burden vs PBS control (UPEC strain CFT073; regimen 4: BAP 600 mg/kg IP 30 min before inoculation, 300 mg/kg at 1, 3, 6, 10, 22, 26 and 30 hpi) [log] | MIC (growth suppressed >90%) (UPEC (CFT073); UPEC CFT073 in urine) [µM] | reduction in UPEC growth (UPEC (CFT073); in urine, at 156 µM BAP) | MICs (E. coli; under nutrient limitation) | selectivity for DXPS (DXPS) | remaining at 1 h, 10 µM ([1]; CD1, 37°C) [%] | median log reduction of bacterial burden vs PBS-treated cohort (UPEC strain CFT073; pro-hpAP 60 mg/kg IP 30 min before inoculation, 30 mg/kg at 1, 3 and 24 hpi (4 doses)) [log] | MIC (E. coli; standard nutrient limitation conditions)
1 | CCCCOP(=O)(O)C(C)=O [BAP, butyl acetylphosphonate] | weight was maintained throughout the observation period; also recorded: no symptoms of distress or change in weight | No overt toxicity or altered behavior was observed; also recorded: no symptoms of distress | 79 | not adequate to provide protection against UPEC infection; also recorded: provides no protection against UTI | no reduction | 1.05 | 1.14 | 1.32 | 1250 (≈ 225 µg/mL) | ~ 80% | low micromolar range | selective for DXPS over other ThDP-dependent enzymes | – | – | –
2 | C#CCCOP(=O)(O)C(=C)NC(=O)C(CC(C)C)NC(=O)CN (stereo not drawn) [pro-hpAP] | – | – | – | – | – | – | – | – | – | – | – | – | 95 | 1.42 | ~ 20 nM
